Test results from US11840528B2 (Hoffmann-La Roche Inc., priority 2018, dated 2023).

How the values were obtained:
h-GABA-A α5β3γ2 [1] = molecular target: T1, h-GABA-A α5β3γ2 (Homo sapiens, UniProt P18507+P31644); test: [3H]flumazenil competition binding assay, membranes of HEK293 cells expressing GABAA receptors
In short: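 Receptor source: human α5β3γ2 transiently transfected into HEK293 cells, membranes in pH 7.5 Krebs-tris. Filtration through GF/C, then scintillation counting.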

h-GABA-A α5β3γ2 [2] = molecular target: T1, h-GABA-A α5β3γ2; test: Two-electrode voltage clamp electrophysiology in Xenopus laevis oocytes expressing GABAA receptors, modulation of GABA EC20 current; type: cell-based; parameters: host or cells: Xenopus laevis oocytes micro-injected with RNA transcripts of the subunits
In short: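 Modulation is reported as % of the GABA EC20 current, calculated as 100*(Fold increase−1) from the peak ratio between a second GABA response carrying compound (applied at roughly 30-fold Ki) and a preceding control response. Oocytes expressing human α5β3γ2 were clamped at −80 mV at room temperature, 3–5 days after injection.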

[3] = displacement of [3H]-Flumazenil 0.5 nM, HEK293 cells expressing human receptors, mean of two determinations, Table 1
[4] = % modulation of GABA EC20 = 100*(Fold increase-1), Table 1
[5] = test compound at approx. 30 fold its Ki, GABA at EC20, Table 1

Ki (h-GABA-A α5β3γ2 [1]; [3])	Efficacy (GABA) % (h-GABA-A α5β3γ2 [2]; [4])	Fold increase h-GABA-A α5β3γ2 oocyte (h-GABA-A α5β3γ2 [2]; [5])	Ki (h-GABA-A α5β3γ2 [1]; reference compounds, Table 2)	Efficacy (GABA) % (h-GABA-A α5β3γ2 [2]; reference compounds, % modulation of GABA EC20, Table 2)	Fold increase h-GABA-A α5β3γ2 oocyte (h-GABA-A α5β3γ2 [2]; reference compounds, Table 2)	SMILES
28.1 nM	119%	2.19				CCO[C@H]1COC2(C1)CN(c1cnn(Cc3c(-c4ccc(C)nc4)noc3C)c(=O)c1)C2 [Example 135, 5-[(7R)-7-ethoxy-5-oxa-2-azaspiro[3.4]octan-2-yl]-2-[[5-methyl-3-(6-methyl-3-pyridyl)isoxazol-4-yl]methyl]pyridazin-3-one]
7.8 nM	136%	2.36				Cc1ccc(-c2noc(C)c2Cn2ncc(N3CC(Oc4ccccc4)C3)cc2=O)cn1 [Example 94, 2-[[5-methyl-3-(6-methyl-3-pyridyl)isoxazol-4-yl]methyl]-5-(3-phenoxyazetidin-1-yl)pyridazin-3-one]
9.2 nM	90%	1.9				Cc1onc(-c2ccc(C(F)(F)F)nn2)c1Cn1ncc(N2CC3(CCCCO3)C2)cc1=O [Example 335, 2-((5-methyl-3-(6-(trifluoromethyl)pyridazin-3-yl)isoxazol-4-yl)methyl)-5-(5-oxa-2-azaspiro[3.5]nonan-2-yl)pyridazin-3(2H)-one]
6.3 nM	129%	2.29				Cc1ccc(-c2noc(C)c2Cn2ncc(N3CC4(CCC(C(F)(F)F)CO4)C3)cc2=O)nn1 (single isomer, unassigned) [Example 321]
			26 nM	−16%	0.84	Cc1onc(-c2ccccc2)c1COc1ccc(C(=O)N2CCOCC2)nn1 [RO-096, reference compound]
6 nM	72%	1.72				Cc1ccc(-c2noc(C)c2Cn2ncc(N3CC(O)C3)cc2=O)cn1 [Example 105, 5-(3-hydroxyazetidin-1-yl)-2-[[5-methyl-3-(6-methyl-3-pyridyl)isoxazol-4-yl]methyl]pyridazin-3-one]
12.5 nM	266%	3.66				O=C(C1CC1)N1CCN(c2cnn(Cc3c(-c4ccc(Cl)cn4)noc3C3CC3)c(=O)c2)CC1 [Example 25, 2-((3-(5-Chloropyridin-2-yl)-5-cyclopropylisoxazol-4-yl)methyl)-5-(4-(cyclopropanecarbonyl)piperazin-1-yl)pyridazin-3(2H)-one]
26.4 nM	168%	2.68				CCOC(=O)C1CCN(c2cnn(Cc3c(-c4ccc(C)nc4)noc3C)c(=O)c2)CC1 [Example 8, ethyl 1-(1-((5-methyl-3-(6-methylpyridin-3-yl)-1,2-oxazol-4-yl)methyl)-6-oxopyridazin-4-yl)piperidine-4-carboxylate]
28.2 nM	180%	2.8				Cc1ccc(-c2noc(C)c2Cn2ncc(-c3cc(F)cnc3Cl)cc2=O)cn1 [Example 189, 5-(2-chloro-5-fluoro-3-pyridyl)-2-((5-methyl-3-(6-methyl-3-pyridyl)isoxazol-4-yl)methyl)pyridazin-3-one]
18.6 nM	86%	1.86				Cc1ccc(-c2noc(C)c2Cn2ncc(N3CC4(C[C@@H](F)CO4)C3)cc2=O)cn1 [Example 200, 5-[(7R)-7-fluoro-5-oxa-2-azaspiro[3.4]octan-2-yl]-2-[[5-methyl-3-(6-methyl-3-pyridyl)isoxazol-4-yl]methyl]pyridazin-3-one]
5.9 nM	105%	2.05				Cc1onc(-c2ccc(C(F)(F)F)nn2)c1Cn1ncc(N2CC3(CC[C@@H](F)CO3)C2)cc1=O [Example 334, (R)-5-(7-fluoro-5-oxa-2-azaspiro[3.5]nonan-2-yl)-2-((5-methyl-3-(6-(trifluoromethyl)pyridazin-3-yl)isoxazol-4-yl)methyl)pyridazin-3(2H)-one]
